Experiments:
Type in all cases: cell-based
Enterobacter cloacae = experiment: MIC against Gram-negative bacteria: Enterobacter cloacae; details: Enterobacter cloacae; 5×10^5 CFU/mL; 10 h cultivation at 37° C.
How it was run: (§1)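 Broth microdilution, LB medium, final inoculum 5×10^5 CFU/mL from McFarland 0.5 cultures. Recombinant human EGF domain proteins tested in two-fold steps, n=3. MIC: lowest concentration, no growth.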

Citrobacter diversus = experiment: MIC against Gram-negative bacteria: Citrobacter diversus; details: Citrobacter diversus; 5×10^5 CFU/mL; 10 h cultivation at 37° C.
How it was run: as §1

Pseudomonas aeruginosa = experiment: MIC against Gram-negative bacteria: Pseudomonas aeruginosa; details: Pseudomonas aeruginosa; 5×10^5 CFU/mL; 10 h cultivation at 37° C.
How it was run: as §1

Serratia marcescens = experiment: MIC against Gram-negative bacteria: Serratia marcescens; details: Serratia marcescens; 5×10^5 CFU/mL; 10 h cultivation at 37° C.
How it was run: as §1

Moraxella catarrhalis = experiment: MIC against Gram-negative bacteria: Moraxella catarrhalis; details: Moraxella catarrhalis; 5×10^5 CFU/mL; 10 h cultivation at 37° C.
How it was run: as §1

Klebsiella pneumonia = experiment: MIC against Gram-negative bacteria: Klebsiella pneumonia; details: Klebsiella pneumonia; 5×10^5 CFU/mL; 10 h cultivation at 37° C.
How it was run: as §1

Proteus vulgaris = experiment: MIC against Gram-negative bacteria: Proteus vulgaris; details: Proteus vulgaris; 5×10^5 CFU/mL; 10 h cultivation at 37° C.
How it was run: as §1

E. coli DH5α = experiment: Antibacterial activity: MIC and growth curve against E. coli DH5α in 96-well plate; details: minimal inhibitory concentration against E. coli DH5α; 96-well plate, 5×10^5 CFU/mL, 37° C., judged after 8 h
How it was run: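 Log-phase DH5α (OD600 about 0.5, 37° C, 185 rpm in LB) was pelleted, resuspended in fresh LB and seeded at 5×10^5 CFU/mL with recombinant protein at 50, 25 and 12.5 μg/mL (two-fold series), in triplicate. Plates were shaken at 175 rpm, 37° C, and OD600 was read every 30 min. MIC was the lowest concentration with no growth.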

Aeromonas hydrophila = experiment: MIC against Gram-negative bacteria: Aeromonas hydrophila; details: Aeromonas hydrophila; 5×10^5 CFU/mL; 10 h cultivation at 37° C.
How it was run: as §1

Proteus mirabilis = experiment: MIC against Gram-negative bacteria: Proteus mirabilis; details: Proteus mirabilis; 5×10^5 CFU/mL; 10 h cultivation at 37° C.
How it was run: as §1

E. coli BL21 = experiment: MIC against Gram-negative bacteria: E. coli BL21; details: E. coli BL21; 5×10^5 CFU/mL; 10 h cultivation at 37° C.
How it was run: as §1

Substance	MIC against E. cloacae (Enterobacter cloacae) [µg/mL]	MIC against C. diversus (Citrobacter diversus) [µg/mL]	MIC against P. aeruginosa (Pseudomonas aeruginosa) [µg/mL]	MIC against S. marcescens (Serratia marcescens) [µg/mL]	MIC against M. catarrhalis (Moraxella catarrhalis) [µg/mL]	MIC against K. pneumonia (Klebsiella pneumonia) [µg/mL]	MIC against P. vulgaris (Proteus vulgaris) [µg/mL]	MIC (E. coli DH5α) [µg/mL]	MIC against A. hydrophila (Aeromonas hydrophila) [µg/mL]	MIC against P. mirabilis (Proteus mirabilis) [µg/mL]	MIC against E. coli BL21 (E. coli BL21) [µg/mL]
PRT1425 (DIDECENGGFCSGVCHNLPGTFECICGPDSALARHIGTDCD; listed as Homo sapiens)	25	50	12.5	12.5	12.5	50	12.5	12.5	12.5	12.5	50
PRT1430 (DINECAHADPCFPGSSCINTMPGFHCEACPRGYKGTQVS; listed as Homo sapiens)	25	25	25	25	12.5	12.5	12.5	25	12.5	25	12.5
PRT1432 (PARTCHSPAHSPCHIHAHCLFERNGAVSCQCNVGWAGNGNVCG; listed as Homo sapiens)	50	12.5	50	12.5	25	12.5	25	25	25	50	12.5
PRT1433 (PPRRCDSNPCFRGVQCTDSRDGFQCGPCPEGYTGNGITCI; listed as Homo sapiens)	12.5	12.5	12.5	12.5	12.5	12.5	12.5	12.5	25	25	12.5
PRT1434 (DVDECKYHPCYPGVHCINLSPGFRCDACPVGFTGPMVQ; listed as Homo sapiens)	25	25	25	12.5	12.5	100	12.5	25	12.5	25	12.5
PRT1436 (AERNCRNPELNPCSVNAQCIEERQGDVTCVCGVGWAGDGYICG; listed as Homo sapiens)	12.5	25	12.5	12.5	25	50	25	12.5	50	12.5	12.5
PRT1437 (DVNECADGAHPPCHASARCRNTKGGFQCLCADPYELGDDGRTCV; listed as Homo sapiens)	12.5	12.5	12.5	50	12.5	12.5	12.5	12.5	12.5	25	25
PRT1438 (PVKSCSEPRCFNGGTCQQALYFSDFVCQCPEGFAGKCCE; listed as Homo sapiens)	12.5	50	50	12.5	12.5	25	25	12.5	25	50	25
PRT1439 (EEDECAKPDRGGCEQRCLNTLGSYQCACEPGYELGPDRRSCE; listed as Homo sapiens)	50	50	50	50	12.5	12.5	12.5	50	12.5	50	12.5
PRT1440 (DKDECSKDNGGCQHECVNTMGSYMCQCRNGFVLHDNKHDCK; listed as Homo sapiens)	12.5	25	12.5	25	12.5	25	12.5	12.5	25	25	25
PRT1441 (EVDECSWPDHGGCEHRCVNTLGSYKCACDPGYELAADKKMCE; listed as Homo sapiens)	12.5	100	12.5	12.5	12.5	25	25	25	25	12.5	25
PRT1442 (DKDECAKDNGGCQHECVNTFGSYLCRCRNGYWLHENGHDCK; listed as Homo sapiens)	12.5	25	12.5	25	50	50	12.5	12.5	25	25	12.5
PRT1443 (NHMPCPENLNGYCIHGKCEFIYSTQKASCRCESGYTGQHCE; listed as Homo sapiens)	25	25	25	50	25	12.5	25	25	50	12.5	50
PRT1444 (HHIPCPEHYNGFCMHGKCEHSINMQEPSCRCDAGYTGQHCE; listed as Homo sapiens)	12.5	50	50	25	12.5	25	50	12.5	25	25	25
PRT1445 (PCLNDCGPYGQCLLLRRHSYLYASCSCKAGWRGWSCT; listed as Homo sapiens)	50	25	50	50	25	50	25	50	50	50	12.5

Reference: patent publication US9833497B2, “Human originated EGF domain proteins and use of the same” (CHENGDU SOURCEBIO LIMITED-LIABILITY COMPANY, priority 2013, dated 2017)
